Experimental data reported in patent US20240209043A1, “NON-ANTIBODY BINDING PEPTIDES AND THEIR ANALOGS DUAL-TARGETING TO PD-1 AND PD-L1, AND USES THEREOF” (ORAL SUBSIDIARY SUN YAT-SEN UNIVERSITY HOSPITAL, priority 2021, published 2024).
pKd: −log10 of the molar value. “Also recorded” adds a separate entry of the source. Where a SMILES comes first, the peptide text is derived from it. Bridges are numbered along the chain shown (N, C = ends). Roman numbers before positions name the chains, in order. Where no end group is shown, it is not given here.

How the values were obtained:
PD-L1 [1] = target: T1, PD-L1 (Homo sapiens, UniProt Q9NZQ7); test: ka (1/Ms)
Description: Table printed on a drawing sheet, Figure 2F
Title: nABP786 binding to PD-L1
(§1) Head of the field: ka (1/Ms)
(§2) The patent's description of the figure: FIG. 2A depicts test results of binding affinity of nABP284 to PD-1 measured by surface plasmon resonance (SPR);
(§3) FIG. 2B depicts test results of binding affinity of nABP386 to PD-1 measured by SPR;
(§4) FIG. 2C depicts test results of binding affinity of nABP486 to PD-1 measured by SPR;
(§5) FIG. 2D depicts test results of binding affinity of nABP486 to PD-L1 measured by SPR;
(§6) FIG. 2E depicts test results of binding affinity of nABP786 to PD-1 measured by SPR;
(§7) FIG. 2F depicts test results of binding affinity of nABP786 to PD-L1 measured by SPR;
First copying reader's note: Inset table of SPR kinetic constants printed above the sensorgram; the target is PD-L1.
Where the first naming reader finds the target: table_title: nABP786 binding to PD-L1
Target sequence in this assay (Q9NZQ7 19-290 limits assumed): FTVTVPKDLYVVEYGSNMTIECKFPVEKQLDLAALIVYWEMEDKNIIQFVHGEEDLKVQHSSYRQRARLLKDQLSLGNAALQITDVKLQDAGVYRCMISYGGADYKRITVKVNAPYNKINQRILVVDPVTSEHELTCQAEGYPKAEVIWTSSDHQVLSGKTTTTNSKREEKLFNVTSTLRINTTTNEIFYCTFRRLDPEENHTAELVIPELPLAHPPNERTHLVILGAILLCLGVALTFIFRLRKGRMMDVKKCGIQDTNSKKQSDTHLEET

PD-1 [2] = target: T2, PD-1 (Homo sapiens, UniProt Q15116); test: ka (1/Ms)
Description: Table printed on a drawing sheet, Figure 2E
Title: nABP786 binding to PD-1
as §1, §2, §3, §4, §5, §6, §7
Target sequence in this assay (Q15116 25-288 limits assumed): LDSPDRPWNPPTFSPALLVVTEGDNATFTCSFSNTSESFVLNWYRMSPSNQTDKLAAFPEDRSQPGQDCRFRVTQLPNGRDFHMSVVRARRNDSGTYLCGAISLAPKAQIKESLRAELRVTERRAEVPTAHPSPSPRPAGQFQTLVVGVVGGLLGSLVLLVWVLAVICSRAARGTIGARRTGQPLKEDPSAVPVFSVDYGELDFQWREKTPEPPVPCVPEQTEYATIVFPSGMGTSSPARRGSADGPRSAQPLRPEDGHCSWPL
First copying reader's note: Inset table of SPR kinetic constants printed above the sensorgram; the target is PD-1.
Where the first naming reader finds the target: table_title: nABP786 binding to PD-1

PD-L1 [3] = target: T1, PD-L1; conditions: background section; read-out: Kd-value of antibody drug targeting PD-L1; cited from earlier work
Target sequence in this assay (Q9NZQ7 19-290): as the sequence (Q9NZQ7 19-290 limits assumed) above

PD-1 [4] = target: T2, PD-1; conditions: background section; read-out: Kd-value of antibody drug targeting PD-1; cited from earlier work
Target sequence in this assay (Q15116 25-288): as the sequence (Q15116 25-288 limits assumed) above

Jurkat T cells = test: CCK-8 cytotoxicity assay on Jurkat T cells; type: cell-based, Human; conditions: CCK-8, 1-64 μM, 24 hours
Experimental: (§8) Cytotoxicity assay was performed and measured with Cell Counting Kit-8 (CCK-8, Dujindo, Japan). Jurkat cells (each well with 4000 cells), PBMCs (each well with 4000 cells) and Cal27 cells (each well with 2000 cells) were added into a 96-well plate and cultured for 24 hours, respectively. nABP284, nABP386 and nABP486 in a concentration gradient of 1 μM, 2 μM, 3 μM, 4 μM, 8 μM, 16 μM, 32 μM and 64 μM were added into the medium and the cells were cultured for 24 hours in a cell incubator. After that, 10 μl of CCK-8 solution was added to each well and the cells were incubated for 2 hours. VictorX5 Multilabel plate reader (PerkinElmer, Singapore) was used for measuring absorbance of each well at 450 nm. Cell viability (%) was calculated by the following formula:
(§9) Cell viability (%)=[(Sample A−Background A)/(Control A−Blank A)×100%. • Wherein Sample A denotes the absorbance of the experimental well (including cells, CCK-8 solution, medium and peptide diluent) • Background A denotes the absorbance of the background hole (including CCK-8 solution, medium, and peptide diluent without cells); • Control A denotes the absorbance of the control hole (including cells, CCK-8 solution and medium without peptide diluent); and • Blank A denotes the absorbance of the blank hole (including CCK-8 solution and medium without cells and peptide diluent).

[5] = tested on: peripheral blood derived lymphocytes; test: CCK-8 cytotoxicity assay on PBMCs / iCIKs; type: cell-based, Human; conditions: CCK-8, 1-64 μM, 24 hours
Experimental: as §8, §9

[6] = tested on: Cal27 cells co-cultured with iCIKs; test: iCIKs-mediated tumor killing efficiency on Cal27 cells (LDH release); type: cell-based, Human; conditions: 10 μM peptide or 2 ug/ml antibody, iCIKs:Cal27 10 to 1, 6 hours
Experimental: Human peripheral blood and PBS are mixed at a ratio of 1 to 1, and then the mixture was added to the surface of Ficoll solution in an equal volume and the mixture and Ficoll were kept layered. Density gradient centrifugation (400 g, 20 min) was used for separating components of the peripheral blood. 10 ug/ml of Anti-CD3 monoclonal antibody (T210, TAKARA) was coated on cell culture dishes to cover the mixture at 4° C. overnight. The separated PBMCs were added to the coated dishes in which RPMI1640 medium supplemented with 10% of fetal calf serum, 2000 U/ml of IFN-γ, and 10 ng/ml of IL-2 was added and was changed every three days. After a ten-day culture, the stimulated PBMCs were known as improving cytokine-induced killer cells (iCIKs).
500 U/ml of IFN-γ was used for stimulating Cal27 cells for 48 hours. The iCIKs were incubated with 10 uM of nABP284, 10 μM of nABP386, 10 μM of nABP486, and 2 ug/ml of PD-1 functional monoclonal antibody (J116, eBioscience|ThermoFisher Science) for 1 hour at 37° C., respectively, and the stimulated CAL27 cells were added to the 96-well plate at 1×10^4 cells per well. […] After these cells were co-cultured for 6 hours, a Cyto Tox Non-Radioactive Cytotoxicity Assay kit was used for detecting the level of lactic dehydrogenase (LDH) in the medium and VictorX5 multilabel plate reader (PerkinElmer, Singapore) was used for measuring absorbance at 490 nm.

Cal27 cells = test: CCK-8 cytotoxicity assay on Cal27 cells; type: cell-based, Human; conditions: CCK-8, 1-64 μM, 24 hours
Experimental: as §8, §9

CC[C@H](C)[C@H](NC(=O)[C@H](CCC(=O)O)NC(=O)[C@H](CCCCN)NC(=O)[C@H](CC(C)C)NC(=O)[C@H](CCCCNC(=O)[C@H](CC(C)C)NC(=O)[C@H](CCCNC(=N)N)NC(=O)[C@H](Cc1c[nH]cn1)NC(=O)[C@H](Cc1c[nH]cn1)NC(=O)[C@H](Cc1c[nH]cn1)NC(=O)[C@@H](N)CO)NC(=O)[C@H](CC(C)C)NC(=O)[C@H](CCCNC(=N)N)NC(=O)[C@H](Cc1c[nH]cn1)NC(=O)[C@H](Cc1c[nH]cn1)NC(=O)[C@H](Cc1c[nH]cn1)NC(=O)[C@@H](N)CO)C(=O)N[C@@H](C)C(=O)N[C@@H](CC(N)=O)C(=O)N[C@@H](CS)C(=O)N[C@@H](CO)C(=O)N1CCC[C@H]1C(=O)N[C@H](C(=O)N[C@@H](CCC(N)=O)C(=O)N[C@@H](Cc1ccccc1)C(=O)N[C@@H](CCCCN)C(=O)N[C@@H](CS)C(=O)O)[C@@H](C)O [nABP786] (HELM PEPTIDE1{S.H.H.H.R.L.K.L.K.E.I.A.N.C.S.P.T.Q.F.K.C}|PEPTIDE2{S.H.H.H.R.L}$PEPTIDE1,PEPTIDE2,7:R3-6:R2$$$V2.0)
ka (PD-L1 [1]): 29000 M⁻¹ s⁻¹
ka (PD-1 [2]): 77600 M⁻¹ s⁻¹

Atezolizumab
pKd (PD-L1 [3]): 9.40

Cemiplimab
pKd (PD-1 [4]): 8.21

Cindilimab
pKd (PD-1 [4]): 9.60

Durvalumab
pKd (PD-L1 [3]): 9.18

I: SHHHRLKLKEIANSPTQFWRMVARNTLGNGAKQSLNIEHA / II: SHHHRL (amide I:7-II:C) [nABP486]
direct cytotoxicity to Jurkat T cells (Jurkat T cells): no directly cytotoxicity; also recorded: non-toxic and side effects
toxicity on peripheral blood derived lymphocytes [5]: non-toxic and side effects
iCIKs-mediated cytotoxicity (killing ability) for Cal27 cells [6]: significantly increased; also recorded: significantly reverse the immune escape of tongue cancer cells; also recorded: superior to functional anti-PD-1 antibody; also recorded: can enhance the tumor killing effect of lymphocytes on tumor cells
direct cytotoxicity to Cal27 cells (Cal27 cells): no directly cytotoxicity; also recorded: no direct killing ability to Cal27 cells; also recorded: non-toxic and side effects

I: SRLKEIANSPTQFWRMVARNTLGNHAKQSLNIEHA / II: SHHHRL (amide I:27-II:C) [nABP386]
direct cytotoxicity to Jurkat T cells (Jurkat T cells): no directly cytotoxicity; also recorded: non-toxic and side effects
toxicity on peripheral blood derived lymphocytes [5]: non-toxic and side effects
iCIKs-mediated cytotoxicity (killing ability) for Cal27 cells [6]: can enhance the tumor killing effect of lymphocytes on tumor cells
direct cytotoxicity to Cal27 cells (Cal27 cells): no directly cytotoxicity; also recorded: non-toxic and side effects

Toripalimab
pKd (PD-1 [4]): 9.49
